One assay concerns the target T1, Caspase-1 (Mus musculus, UniProt P29452).
T1 sequence (P29452 whole entry): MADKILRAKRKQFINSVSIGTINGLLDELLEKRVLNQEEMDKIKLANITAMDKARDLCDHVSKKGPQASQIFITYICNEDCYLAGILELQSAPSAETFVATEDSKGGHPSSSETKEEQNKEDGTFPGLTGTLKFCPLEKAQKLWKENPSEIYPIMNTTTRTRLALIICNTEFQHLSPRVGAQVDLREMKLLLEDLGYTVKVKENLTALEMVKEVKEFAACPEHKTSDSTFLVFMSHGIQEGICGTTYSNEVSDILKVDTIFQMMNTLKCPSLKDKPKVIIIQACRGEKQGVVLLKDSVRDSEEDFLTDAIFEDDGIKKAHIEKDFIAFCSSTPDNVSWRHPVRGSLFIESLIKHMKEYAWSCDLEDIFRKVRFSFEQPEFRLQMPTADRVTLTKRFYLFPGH
As to the kind of experiment: Inhibitory activity against Caspase-1 using Ac-TyrValAlaAsp-amc as substrate.

The target of the next assay is T2, Caspase-3 (Homo sapiens, UniProt P42574).
T2 sequence (P42574 whole entry): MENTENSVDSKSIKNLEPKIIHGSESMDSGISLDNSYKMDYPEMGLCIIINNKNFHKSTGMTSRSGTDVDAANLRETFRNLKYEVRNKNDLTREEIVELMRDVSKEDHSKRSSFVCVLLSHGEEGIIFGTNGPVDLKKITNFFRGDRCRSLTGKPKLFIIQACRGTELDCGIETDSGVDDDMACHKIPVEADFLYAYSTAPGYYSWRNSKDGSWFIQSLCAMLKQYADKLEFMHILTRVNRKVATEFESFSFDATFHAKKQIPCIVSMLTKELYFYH
Put plainly: Inhibitory activity against human Caspase-3 using Ac-AspGluValAsp as substrate.

Molecules are shown by their SMILES.

On to `CC(=O)N[C@@H](CC(=O)O)C(=O)N[C@H](C(=O)N[C@@H](C)C(=O)N[C@H]1CC(=O)OC1O)C(C)C` (stereo partly drawn), for which 523 nM corresponded to half-maximal inhibition at Caspase-1 (IC50).

With `CC(=O)N[C@@H](Cc1ccc(O)cc1)C(=O)N[C@H](C(=O)N[C@@H](C)C(=O)N[C@H]1CC(=O)OC1O)C(C)C` (stereo partly drawn), 4.6 nM corresponded to half-maximal inhibition against Caspase-1 (IC50).

In the case of `C[C@@H](C(=O)N[C@H]1CC(=O)OC1O)N1CCCC[C@H](NC(=O)OCc2ccccc2)C1=O` (stereo partly drawn), the IC50 (usually the concentration at which inhibition is half-maximal) on Caspase-3 is more than 10000 nM; against Caspase-1, 186 nM.

On Caspase-1, `CC(C)[C@H](NC(=O)OCc1ccccc1)C(=O)N1CCC[C@H]1C(=O)N[C@H]1CC(=O)OC1O` (stereo partly drawn) displayed an IC50 of 87 nM.

For the compound `CC(C)[C@H](NC(=O)OCc1ccccc1)C(=O)N[C@@H](C)C(=O)N[C@H]1CC(=O)OC1O` (stereo partly drawn), on Caspase-1, the IC50 was 64 nM.

For `CC(=O)N[C@@H](CC(=O)O)C(=O)N[C@H]1CCC[C@H]2SC[C@@H](C(=O)N[C@H]3CC(=O)OC3O)N2C1=O` (stereo partly drawn), the IC50 at Caspase-3 amounted to 18 nM; against Caspase-1 it was 10400 nM.

Regarding `O=C1C[C@H](NC(=O)[C@@H]2CCC[C@@H]3CCC[C@H](NC(=O)OCc4ccccc4)C(=O)N32)C(O)O1` (stereo partly drawn), the IC50 against Caspase-3 is more than 10000 nM; against Caspase-1, 36 nM.

At Caspase-1, `CC(C)[C@H](NC(=O)OCc1ccccc1)C(=O)N1CCCC[C@H]1C(=O)N[C@H]1CC(=O)OC1O` (stereo partly drawn) had an IC50 of 95 nM.

As for `CC(=O)N[C@@H](CC(=O)O)C(=O)N[C@@H](CCC(=O)O)C(=O)N[C@H](C(=O)N[C@H]1CC(=O)OC1O)C(C)C` (stereo partly drawn), the IC50 against Caspase-3 is 1.2 nM; on Caspase-1 it was 71 nM.

`O=C1C[C@H](NC(=O)[C@@H]2CS[C@H]3CC[C@H](NC(=O)OCc4ccccc4)C(=O)N32)C(O)O1` (stereo partly drawn) returned an IC50 on Caspase-1 of 4800 nM.

For the compound `O=C(CN1CC[C@H](NC(=O)OCc2ccccc2)C1=O)N[C@H]1CC(=O)OC1O` (stereo partly drawn), the IC50 against Caspase-3 and at Caspase-1 was more than 10000 nM each time.

Regarding `C[C@@H](C(=O)N[C@H]1CC(=O)OC1O)N1CC[C@H](NC(=O)OCc2ccccc2)C1=O` (stereo partly drawn), the figures for the IC50 against Caspase-3 and against Caspase-1 were more than 100000 nM and 3700 nM, respectively.

In the case of `O=C1C[C@H](NC(=O)[C@@H]2CS[C@@H]3CCC[C@H](NC(=O)OCc4ccccc4)C(=O)N32)C(O)O1` (stereo partly drawn), the figures for the IC50 on Caspase-3 and on Caspase-1 were more than 10000 nM and 159 nM, respectively.

In the case of `O=C(CN1CCCC[C@H](NC(=O)OCc2ccccc2)C1=O)N[C@H]1CC(=O)OC1O` (stereo partly drawn), the IC50 against Caspase-1 was determined as 1680 nM.

For the compound `O=C(CN1CCC[C@H](NC(=O)OCc2ccccc2)C1=O)N[C@H]1CC(=O)OC1O` (stereo partly drawn), the IC50 is more than 100000 nM at Caspase-3 and 37000 nM against Caspase-1.

For the origin of these results see ChEMBL document CHEMBL1131550, “Conformationally constrained inhibitors of caspase-1 (interleukin-1 beta converting enzyme) and of the human CED-3 homologue caspase-3 (CPP32, apopain)” (Bioorg Med Chem Lett, 1998).
